Measured values: patent publication US20120328713A1, “Articles of Manufacture with Improved Anti-microbial Properties” (priority 2009, published 2012)

Experiments:
[1] = test system: Staphylococcus aureus (MRSA) 456; test: MBEC P&G assay in dilutions of human serum; assay type: cell-based
Description: (§1) The effects of silver (III) periodate and silver nitrate were tested in different dilutions of human serum (0.001%, 0.01%, 0.1%, 1%, 10%, 50%) using the MBECTM P&G assay against relevant clinical human pathogens Escherichia coli, Staphylococcus aureus (MRSA), and Candida albicans. The challenge time was 4 hours. The tested concentration range for the silver compounds was 500 to 7.8 ppm.

[2] = test system: Escherichia coli ATCC 25922; test: MBEC P&G assay in dilutions of human serum; assay type: cell-based
Description: as §1

[3] = test system: Candida albicans ATCC 28367; test: MBEC P&G assay in dilutions of human serum; assay type: cell-based; conditions: all concentrations of human serum
Description: as §1

P. aeruginosa ATCC 27853 = test: Silver (III) periodate efficacy testing in the presence of Cl-, SO4 2-, and PO4 3-; assay type: cell-based; conditions: 30 minutes, 1.5-200 ppm
Description: Silver (III) periodate was tested for efficacy in water, 1% NaCl, 1% K2SO4, and 1% K2HPO4 solutions, and compared with silver nitrate. The test solutions were tested against P. aeruginosa ATCC 27853. The challenge time was 30 minutes. Silver (III) periodate and silver nitrate were tested at range of 1.5-200 ppm.

[4] = test system: Escherichia coli (ATCC 25922); test: MBEC P&G assay in dilutions of feces; assay type: cell-based
Description: The challenge time was 4 hours. The tested concentration range for both silver compounds was 500 to 7.8 ppm.

[5] = test system: Escherichia coli (ATCC 25922); test: MBEC P&G assay in dilutions of urine; assay type: cell-based
Description: (§2) The effects of silver (III) periodate and silver nitrate in different dilutions of urine (0.001%, 0.01%, 0.1%, 1%, 10%, 50%) using the MBEC™ P&G assay were tested against Escherichia coli (ATCC 25922)The challenge time was 4 hours. The tested concentration range for both silver compounds was 500 to 7.8 ppm.

[6] = test system: Escherichia coli (ATCC 25922); test: MBEC P&G assay in dilutions of mucin; assay type: cell-based
Description: as §2, with “mucin (2.0%, 1.0%, 0.5%, 0.25%, 0.12%, 0.06%) were tested” for “urine (0.001%, 0.01%, 0.1%, 1%, 10%, 50%)”, “assay” for “assay were tested”

[7] = test system: bacterial speck (Pseudomonas syringae pv. tomato); test: Field trial, foliar spray against bacterial speck in tomatoes (Example 18); assay type: in vivo, tomatoes (Lycopersicon esculentum); conditions: after three treatment sprays
[8] = test system: bacterial canker (Clavibacter michiganensis pv. michiganensis); test: Field trial, foliar spray against bacterial canker in tomatoes (Example 20); assay type: in vivo, tomatoes (Lycopersicon esculentum)
Description: (§3) Silver (III) periodate was tested as a bactericidal foliar spray treatment against bacterial canker (Clavibacter michiganensis pv. michiganensis) in tomatoes (Lycopersicon esculentum).
(§4) See Example 18 for Preparation of Tomato Seed; Preparation of Field; Seeding; Plot Maintenance; Preparation of Spray Treatment Solutions and Inoculum; Spray Treatment Procedure; and Data Collection.

[9] = test system: bacterial canker (Clavibacter michiganensis pv. michiganensis); test: Field trial, foliar spray against bacterial canker in tomatoes (Example 19); assay type: in vivo, tomatoes (Lycopersicon esculentum); conditions: after three treatment sprays; full dose
Description: as §3, §4

[10] = Stability of partially dehydrated sodium diperiodatoargentate in the presence of saline; assay type: physicochemical; conditions: compared with the fully hydrated compound
Description: Fully hydrated sodium diperiodatoargentate was made, ground using a mortar and pestle, and spread in an even thin layer in a pre-heated (120° C.) non-reactive container (e.g. glass or ceramics). The thin layer was necessary to prevent areas of poor heat transfer. The container was then placed in an oven at 120° C. for 15 minutes. After 15 minutes, the sample was removed from the oven and transferred to a sealed container (glass vial), which was then stored in a dessicator in the dark at room temperature to prevent the material from adsorbing water.
Relative to the fully hydrated sodium diperiodatoargentate, the partially dehydrated sodium diperiodatoargentate is darker in color and is a much finer powder (which will be advantageous for incorporation into polymers).

[11] = test system: Pseudomonas aeruginosa biofilms; test: Log reduction and MBEC assays on biofilms; assay type: cell-based; conditions: 4 hours

Compound: O=[N+]([O-])[O-].[Ag+] [silver nitrate, reference compound]
- log reduction compared with the other compound ([1]; 0.001% human serum, 500 ppm): higher log reduction only at 500 ppm with a two magnitude difference
- killing activity ([1]; 0.1% and 0.01% human serum): no significant killing activity
- log reduction, trend with compound concentration ([2]; human serum 1% or 0.001%): no effect on the log reduction
- log reduction, trend with compound concentration ([2]; human serum 50%, 10%, and 0.1%): log reductions decreased significantly with a decrease in the concentration of silver nitrate
- log reduction, trend with compound concentration [3]: Log reductions decreased with a decrease in concentration of silver nitrate
- killing (P. aeruginosa ATCC 27853; in the presence of 1% NaCl or 1% K2HPO4): unable to kill at any of the tested concentrations
- killing (P. aeruginosa ATCC 27853; no salt and 1% K2SO4): effective at killing all the cells for the entire challenge range
- MBC, effective level ([4]; 1.56% feces): < 7.8 ppm
- MBC, effective level ([4]; 3.13% feces): < 7.8 ppm
- MBC, effective level ([4]; 6.25% feces): < 7.8 ppm
- MBC, effective level ([4]; 12.5% feces): 15.6 ppm
- MBC, effective level ([4]; 25% feces): 31.25 ppm
- MBC, effective level ([4]; 50% feces): 62.5 ppm
- MBEC effectiveness compared with silver(III) periodate ([4]; in the presence of feces): more effective than silver(III) periodate in higher concentrations of feces but less effective in lower concentrations
- MBC cut-off point ([5]; 50.0% urine): 31.25 ppm
- MBC cut-off point ([5]; 100% urine): 62.5 ppm
- log reduction ([5]; 500 and 250 ppm, all tested concentrations of urine): approximately equal log reductions
- log reduction compared with the other compound ([5]; compound concentrations of 125 ppm and below): larger log reduction in the higher concentrations of urine
- log reduction compared with the other compound ([6]; mucin 0.5% and lower, higher compound concentrations): better log reductions
- log reduction, trend with compound concentration ([6]; regardless of the concentration of mucin): the lower the concentration of silver nitrate, the lower the log reduction was

Compound: oxysilver nitrate [reference compound]
- disease severity on foliage [7]: best at reducing disease severity on foliage
- disease severity on foliage ([8]; after three treatment sprays, low and high dose): best at reducing disease severity on foliage
- disease severity on foliage ([8]; after two treatment sprays, high dose): best at reducing disease severity on foliage
- disease severity on foliage [9]: best at reducing disease severity on foliage

Compound: sodium diperiodatoargentate
- stability in the presence of saline [10]: same level of stability as the fully hydrated compound
- kill of biofilms ([11]; 200 ppm, p<0.05): significantly higher kill than the fully hydrated sodium diperiodatoargentate
- kill of biofilms ([11]; all other concentrations (1.56 ppm to 200 ppm range)): no significant differences
